Data on twelve molecules can be found in ChEMBL document CHEMBL1135076, “Leishmanicidal activity of some aliphatic diamines and amino-alcohols” (Bioorg Med Chem Lett, 2002).

Holding throughout (assay type): functional, organism-based
In assay [1] the test system is Leishmania braziliensis. Kind of assay: Tested in vitro for leishmanicidal activity against Leishmania brasiliensis (2903) at the concentration of 100 ug/mL; ++ indicates 80-90% lysis of parasites.
Assay [2] concerns Leishmania braziliensis. Kind of assay: In vitro for leishmanicidal activity against Leishmania brasiliensis (2903) at the concentration of 10 ug/mL.
The subject of assay [3] is Leishmania braziliensis. The assay is described as follows: In vitro for leishmanicidal activity against Leishmania brasiliensis (2903) at the concentration of 50 ug/mL.
Assay [4] deals with Leishmania donovani. The assay is described as follows: Tested in vitro for leishmanicidal activity against Leishmania donovani (PP75) at the concentration of 10 ug/mL.
The test system of assay [5] is Leishmania donovani. Kind of assay: In vitro for leishmanicidal activity against Leishmania donovani (PP75) at the concentration of 100 ug/mL.
The test system of assay [6] is Leishmania donovani. Kind of assay: In vitro for leishmanicidal activity against Leishmania donovani (PP75) at the concentration of 25 ug/mL.
In assay [7] the test system is Leishmania donovani. Kind of assay: In vitro for leishmanicidal activity against Leishmania donovani (PP75) at the concentration of 50 ug/mL.
In assay [8] the test system is Leishmania amazonensis. The assay is described as follows: In vitro for leishmanicidal activity against Leishmania amazonensis (PH8) at the concentration of 100 ug/mL.
The subject of assay [9] is Leishmania amazonensis. Kind of assay: In vitro for leishmanicidal activity against Leishmania amazonensis (PH8) at 25 ug/mL; No lysis of parasites.
Assay [10] concerns Leishmania amazonensis. Kind of assay: In vitro for leishmanicidal activity against Leishmania amazonensis (PH8) at the concentration of 50 ug/mL.
Assay [11] concerns Leishmania braziliensis. Kind of assay: In vitro for leishmanicidal activity against Leishmania brasiliensis (2903) at the concentration of 25 ug/mL.
Assay [12] concerns Leishmania amazonensis. Kind of assay: In vitro for leishmanicidal activity against Leishmania amazonensis (PH8) at the concentration of 10 ug/mL.
For assay [13], the system named is Leishmania braziliensis. Kind of assay: Tested in vitro for leishmanicidal activity against Leishmania brasiliensis (2903) at the concentration of 100 ug/mL; + indicates Less than 70% lysis of parasites.
In assay [14] the test system is Leishmania braziliensis. The assay is described as follows: Tested in vitro for leishmanicidal activity against Leishmania brasiliensis (2903) at the concentration of 10 ug/mL;+ indicates Less than 70% lysis of parasites.
The test system of assay [15] is Leishmania donovani. The assay is described as follows: In vitro for leishmanicidal activity against Leishmania donovani (PP75) at the concentration of 10 ug/mL.
Assay [16] relates to Leishmania braziliensis. Kind of assay: In vitro for leishmanicidal activity against Leishmania brasiliensis (2903) at the concentration of 100 ug/mL.

For the molecule `CCCCCCCCCCCCCCC(COCc1ccccc1)N(CC)CC` (configuration not stated), the Activity in the assay on Leishmania braziliensis [1], with Leishmania braziliensis [2], with Leishmania braziliensis [3], in the assay with Leishmania donovani [4], with Leishmania donovani [5] and in the assay on Leishmania donovani [6] was 80-90% lysis of parasites in each case. The Activity with Leishmania donovani [7], in the assay with Leishmania amazonensis [8], in the assay with Leishmania amazonensis [9], in the assay with Leishmania amazonensis [10], with Leishmania braziliensis [11] and with Leishmania amazonensis [12] was 80-90% lysis of parasites throughout.
In the case of `CCCCCCCCCCCCCCC(COCc1ccccc1)NCC(=O)OCC` (configuration not stated), the Activity with Leishmania braziliensis [1], in the assay with Leishmania braziliensis [2], with Leishmania braziliensis [3], in the assay with Leishmania donovani [4], with Leishmania donovani [5] and with Leishmania donovani [6] was 80-90% lysis of parasites throughout. Further, the Activity in the assay on Leishmania donovani [7], with Leishmania amazonensis [8], with Leishmania amazonensis [9], in the assay on Leishmania amazonensis [10], in the assay on Leishmania braziliensis [11] and in the assay on Leishmania amazonensis [12] was 80-90% lysis of parasites in each case.
`CCCCCCCCCCCCCCC(COCc1ccccc1)NC(=O)CCCC(=O)O` (configuration not stated): the Activity with Leishmania braziliensis [1], in the assay on Leishmania braziliensis [2], in the assay on Leishmania braziliensis [3], with Leishmania donovani [4], with Leishmania donovani [5] and in the assay on Leishmania donovani [6] was 80-90% lysis of parasites in each case. In addition, the Activity in the assay with Leishmania donovani [7], in the assay on Leishmania amazonensis [8], in the assay with Leishmania amazonensis [9], in the assay on Leishmania amazonensis [10], in the assay with Leishmania braziliensis [11] and with Leishmania amazonensis [12] was 80-90% lysis of parasites throughout.
`CCCCCCCCCCCCCCC(COC(=O)CCCCCC)NC(=O)CCCCCC` (configuration not stated): the Activity with Leishmania braziliensis [1], in the assay with Leishmania braziliensis [2], with Leishmania braziliensis [3], with Leishmania donovani [4], in the assay on Leishmania donovani [5] and in the assay on Leishmania donovani [6] was 80-90% lysis of parasites in each case. Moreover, the Activity in the assay with Leishmania donovani [7], in the assay on Leishmania amazonensis [8], in the assay with Leishmania amazonensis [9], in the assay with Leishmania amazonensis [10], in the assay on Leishmania braziliensis [11] and in the assay on Leishmania amazonensis [12] was 80-90% lysis of parasites each time.
For the molecule `CCCCCCCCCCCCCCC(N)CN` (configuration not stated), the Activity in the assay on Leishmania braziliensis [1], with Leishmania braziliensis [2], with Leishmania braziliensis [3], in the assay with Leishmania donovani [4], with Leishmania donovani [5] and with Leishmania donovani [6] was 80-90% lysis of parasites in each case. Also, the Activity in the assay on Leishmania donovani [7], with Leishmania amazonensis [8], in the assay on Leishmania amazonensis [9], with Leishmania amazonensis [10], in the assay on Leishmania braziliensis [11] and in the assay with Leishmania amazonensis [12] was 80-90% lysis of parasites in each case.
In the case of `CCCCCCCCCCCCCCC(CO)NC(=O)CCCCCC` (configuration not stated), the Activity entry in the assay on Leishmania braziliensis [2], in the assay on Leishmania braziliensis [13], in the assay with Leishmania braziliensis [3], in the assay with Leishmania donovani [4], in the assay with Leishmania donovani [5] and with Leishmania donovani [6] was “Less than 70% lysis of parasites” each time. Also, the Activity entry in the assay with Leishmania donovani [7], with Leishmania amazonensis [8], in the assay on Leishmania amazonensis [9], in the assay with Leishmania amazonensis [10], with Leishmania braziliensis [11] and in the assay with Leishmania amazonensis [12] was “Less than 70% lysis of parasites” each time.
For the molecule `C[C@@H]1[C@H](O)[C@@H](C)/C=C/C=C/C=C/C=C/C=C/C=C/C=C/[C@H](O[C@@H]2O[C@H](C)[C@@H](O)[C@H](N)[C@@H]2O)C[C@@H]2O[C@](O)(C[C@@H](O)C[C@@H](O)[C@H](O)CC[C@@H](O)C[C@@H](O)CC(=O)O[C@H]1C)C[C@H](O)[C@H]2C(=O)O`, the Activity result in the assay on Leishmania donovani [5], in the assay with Leishmania donovani [7], with Leishmania amazonensis [8] and in the assay on Leishmania amazonensis [10] was “+” throughout.
Consider `CCCCCCCCCCCCCCC(NC(=O)OC(C)(C)C)C(=O)O` (configuration not stated), for which the Activity with Leishmania braziliensis [1], in the assay with Leishmania braziliensis [2], with Leishmania braziliensis [3], in the assay with Leishmania donovani [4], in the assay with Leishmania donovani [5] and in the assay on Leishmania donovani [6] was 80-90% lysis of parasites in each case. Moreover, the Activity with Leishmania donovani [7], with Leishmania amazonensis [8], in the assay on Leishmania amazonensis [9], with Leishmania amazonensis [10], in the assay on Leishmania braziliensis [11] and with Leishmania amazonensis [12] was 80-90% lysis of parasites throughout.
As for `CCCCCCCCCCCCCCC(N)CO` (configuration not stated), the Activity with Leishmania braziliensis [1], with Leishmania braziliensis [2], in the assay with Leishmania braziliensis [3], in the assay with Leishmania donovani [4], with Leishmania donovani [5] and in the assay on Leishmania donovani [6] was 80-90% lysis of parasites in each case. Besides, the Activity with Leishmania donovani [7], in the assay on Leishmania amazonensis [8], in the assay with Leishmania amazonensis [9], with Leishmania amazonensis [10], in the assay on Leishmania braziliensis [11] and in the assay on Leishmania amazonensis [12] was 80-90% lysis of parasites in each case.
On to `CCCCCCCCCCCCCCC(CO)NC(=O)OC(C)(C)C` (configuration not stated), for which the Activity with Leishmania braziliensis [1], with Leishmania braziliensis [2], in the assay with Leishmania braziliensis [3], with Leishmania donovani [4], with Leishmania donovani [5] and with Leishmania donovani [6] was 80-90% lysis of parasites throughout. Also, the Activity in the assay with Leishmania donovani [7], in the assay with Leishmania amazonensis [8], in the assay on Leishmania amazonensis [9], with Leishmania amazonensis [10], with Leishmania braziliensis [11] and in the assay on Leishmania amazonensis [12] was 80-90% lysis of parasites throughout.
On to `CCCCCCCCCCCCCCC(N)CN(CC)CC` (configuration not stated), for which the Activity entry in the assay with Leishmania braziliensis [14] was “Less than 70% lysis of parasites”; in the assay with Leishmania donovani [15], “Less than 70% lysis of parasites”; in the assay on Leishmania donovani [5], “+”; in the assay on Leishmania donovani [7], “+”; with Leishmania amazonensis [8] it was “+”; in the assay on Leishmania amazonensis [10], “+”. The Activity entry is “+” in the assay on Leishmania braziliensis [16] and “Less than 70% lysis of parasites” with Leishmania amazonensis [12].
Consider `CCCCCCCCCCCCCCC(CN)NC(=O)OC(C)(C)C` (configuration not stated), for which the Activity in the assay with Leishmania braziliensis [1], with Leishmania braziliensis [2], in the assay on Leishmania braziliensis [3], in the assay with Leishmania donovani [4], in the assay on Leishmania donovani [5] and in the assay on Leishmania donovani [6] was 80-90% lysis of parasites each time. The Activity in the assay with Leishmania donovani [7], with Leishmania amazonensis [8], with Leishmania amazonensis [9], in the assay on Leishmania amazonensis [10], with Leishmania braziliensis [11] and in the assay on Leishmania amazonensis [12] was 80-90% lysis of parasites in each case.
